Source: US20180133327A1, “Cell Penetrating Peptides and Complexes Comprising the Same” (Amal Therapeutics SA, priority 2015, published 2018)

Test system: IFN-γ-producing OVA323-339-specific CD4 T cells
Assay: Vaccination with ZEBRA CPP truncation constructs plus TLR agonist adjuvant, IFN-γ Elispot on spleen cells, CD4
Assay type: in vivo, mice
Experimental: (§1) Mice were vaccinated three times (wk0, wk2 and wk9) by s.c. injection (right flank) of 10 nmoles of OVACD8CD4 (the cargo without Zebra CPP truncation), Z13OVACD8CD4, Z14OVACD8CD4, Z15OVACD8CD4, Z18OVACD8CD4 and i.m. injection of 50 μg of Hiltonol (right hind leg). One week after the last vaccination, Elispot assay was performed on spleen cells for detecting IFN-y-producing OVA257-264-specific CD8 T cells (A) and OVA323-339-specific CD4 T cells (B). *, p<0.05; **, p<0.01.
as §1, with “Z15OVACD8CD4 or” for “Z15OVACD8CD4,”, “20” for “i.m. injection of 50”, “Pam3CSK4.” for “Hiltonol (right hind leg).”, “IFN-γ-producing” for “IFN-y-producing”
Mice were vaccinated three times (wk0, wk2 and wk9) by s.c. injection (right flank) of 10 nmoles of Z13OVACD8CD4, Z15OVACD8CD4 or Z18OVACD8CD4 and 20 μg of MPLA. […]
Firstly, those constructs were tested with Hiltonol adjuvant (a TLR3 agonist). […] The number of peptide-specific IFN-γ-producing cells was calculated by subtracting the number of IFN-γ-secreting cells cultured without peptide to that obtained with cells cultured with peptide. […]

With REVAAAKSSENDRLRLLLK [Z18] the “CD4 immune response, combined with Pam3CSK4” value (10 nmol ZxxOVACD8CD4 s.c. wk0, wk2, wk9 and 20 μg Pam3CSK4 (TLR2 agonist)) was “highest CD8 and CD4 immune response”.
With “KRYKNRVASRKSRAKFKQLLQHYREVAAAKSSENDRLRLLLK [Z13]” the “CD4 immune response, combined with MPLA” value (10 nmol ZxxOVACD8CD4 s.c. wk0, wk2, wk9 and 20 μg MPLA (TLR4 agonist)) was “most efficacious”.
